Data as given in publication PMC9318536, “Novel Cyclic Peptides for Targeting EGFR and EGRvIII Mutation for Drug Delivery” (Pharmaceutics, 2022).
Entries after “also recorded” stand apart in the source; their conditions may differ. Like-named read-outs stand apart in the source and are kept apart here. Marks after values point to notes of the source that are not given here. Positions of bridges follow the written chain, without caps; N, C: chain ends. Residues, ends and D or L forms follow the SMILES beside them. No end group written: not given here. *: point of attachment. Camptothecin(20S-OCO) = CC[C@@]1(OC(=O)*)C(=O)OCc2c1cc1n(c2=O)Cc2cc3ccccc3nc2-1; GABA = NCCCC(=O)O

Experiments:
[1] = test system: H1299 cells; assay: XTT cytotoxicity of peptides, peptide-CPT conjugates and CPT on H1299 cells; settings: for cell viability relative to control untreated cells (IC50 could not be calculated): H1299, XTT; for IC50: Homo sapiens
Description: (§1) Cell growth in the presence of PDCs was measured by a commercial XTT assay kit (Cell Proliferation Kit, XTT based; Sartorius, Israel). The cells were seeded in 96-well plates (10^4 cells/well) and incubated overnight in a complete growth medium. They were then washed and re-cultured in 100 µL of fresh complete medium containing various concentrations of free drugs or PDCs, for 24, 48, and 72 h. The XTT solution was added to each well and the plate was further incubated for 2–3 h at 37 °C. The optical densities in the wells were measured at both 480 and 680 nm using a TECAN Infinite M200 ELISA reader. All tests were performed in triplicate, and each experiment was repeated three times.
(§2) The cytotoxicity of the PDCs was tested against H1299 and DKMG cells using two protocols. In the first protocol, cells were incubated in a complete medium containing a range of concentrations (0.5–50 µM) of P6, P9, P6-CPT, or P9-CPT for 6 h, after which, the medium was replaced with fresh, drug-free, complete medium, and the cells were cultured for an additional 24 h (designated as 6h24h) or 48 h (6h48h). In the second protocol, cells were exposed continuously to free drugs or PDCs for 24, 48, and 72 h. For each case, during the culture period, cell cytotoxicity was determined as described above and IC50 values were calculated.

[2] = test system: DKMG cells; assay: XTT cytotoxicity of peptides, peptide-CPT conjugates and CPT on DKMG cells; type: cell-based; settings: for cell viability relative to control untreated cells (IC50 could not be calculated) / IC50 / effect on cell viability (in words): XTT; for IC50: non-linear regression, mean ± SD, triplicate; for effect on cell viability (in words): 24 h pre-incubation protocol
Description: as §1, §2

[3] = Drug release / PDC breakdown in complete growth medium; type: in vitro ADME; settings: RPMI and DMEM complete growth media, 37 °C, 0–72 h, LC–MS, triplicate
Description: PDC breakdown rates were determined as described elsewhere. Briefly, peptide-FITC and peptide–CPT conjugates were incubated at 37 °C in 1 mL of DMEM or RPMI full-growth medium for […], 3, 7, 24, 48, and 72 h. At each time point, 10 µL of the sample was taken and mixed with 25 µL ACN/H20 (1:1, v/v.). The samples were centrifuged at 1400 rpm for 15 min. Supernatants were collected, filtered, and analyzed by liquid chromatography–mass spectrometry (LC–MS).
The release rates of CPT from P6-CPT and P9-CPT were measured in RPMI and DMEM complete growth media at 37 °C for 0, 0.5, 3, 7, 24, 48, and 72 h according to the procedure. The degradation of the conjugates and the CPT release were analyzed by LC–MS. […] The conjugates degraded with a half-life of 6–7 h (Figure 8).

[4] = biological target: T1, EGFR on H1299 cells (Homo sapiens, UniProt P00533); assay: Competitive binding assay with EGF by FACS; type: cell-based; settings: H1299, 2.5 µM FITC-labeled peptides with or without 80 nM EGF, 4 °C 1 h then 37 °C 15 min, duplicate
T1 construct: H1299, H1975, and DKMG cells were characterized by cell surface overexpression of EGFR; endogenous in cells; host or cells: H1299 cells (ATCC)
Description: H1299 and DKMG cell lines were cultured in a complete RPMI growth medium in a 6-well plate overnight, until 80% confluent. Pre-incubation was performed with a blocking buffer consisting of 5 mg/mL BSA in PBS, pH 7.4, at 4 °C for 30 min. Then, cells were washed twice in PBS and incubated with 2.5 µM of FITC-labeled peptides with or without 80 nM EGF at 4 °C for 1 h. The cells were then incubated for 15 min at 37 °C under 5% CO2 to allow for peptide internalization. The cells were washed twice by centrifugation at 265× g for 5 min and analyzed by flow cytometry.
Figure 3 Competitive uptake of P3, P4, P5, P6, P9, and P11 peptides by FACS. Fluorescence was measured for H1299 cells (30,000 cells) after incubation with (2.5 µM) P3–P6, P9, and P11 by FITC-labeled peptides in the absence or presence of 80 nM of the EGF protein. The experiments were performed in duplicate. For each sample, the mean ± SD is shown (** p < 0.01, *** p < 0.001).

[5] = 6 h exposure then 24 h drug-free medium (6h24h), 0.5–50 µM
[6] = H1299, first protocol (6 h preincubation, then up to 48 h), XTT

Row | Compound | cytotoxic effect (in words) [1, 6] | half-life of conjugate degradation (CPT release) [3] [h] | competition of EGF with peptide uptake [4] | cytotoxic effect (in words) [1] | effect on cell viability (in words) [2] | also measured
1 | CC[C@@]1(O)C(=O)OCc2c1cc1n(c2=O)Cc2cc3ccccc3nc2-1 [CPT, camptothecin] |  |  |  |  |  | cell viability relative to control untreated cells (IC50 could not be calculated) [1, 5]: >50% *; cell viability relative to control untreated cells (IC50 could not be calculated) ([1]; continuous exposure 48 h): <45%; cell viability relative to control untreated cells (IC50 could not be calculated) ([1]; continuous exposure 72 h): <15%; IC50 ([1]; NCI-H1299): 6.7 ± 1.8 µM; IC50 ([1]; NCI-H1299, 24 h): 54.8 ± 2 µM; cell viability relative to control untreated cells (IC50 could not be calculated) [2, 5]: >50% *; IC50 ([2]; 6 h exposure then 48 h in drug-free medium (6h48h), 0.5–50 µM): 8.5 ± 1 µM; IC50 ([2]; continuous exposure 24 h): 25 ± 1.3 µM; cell viability relative to control untreated cells (IC50 could not be calculated) ([2]; continuous exposure 48 h): <50% **; cell viability relative to control untreated cells (IC50 could not be calculated) ([2]; continuous exposure 72 h): <40% **
2 | CC[C@H](C)[C@@H]1NC(=O)[C@H](Cc2ccc(O)cc2)NC(=O)[C@H](CO)NC(=O)CNC(=O)[C@@H]2CCCN2C(=O)[C@H](C(C)C)NC(=O)[C@H](Cc2cnc[nH]2)NC(=O)[C@@H](NC(=O)CCCNC(=O)O[C@]2(CC)C(=O)OCc3c2cc2n(c3=O)Cc3cc4ccccc4nc3-2)CSSC[C@@H](C(N)=O)NC1=O [P6-CPT] ({Camptothecin(20S-OCO)-GABA}-CHVPGSYIC-NH2; disulfide 1-9) | exhibited cytotoxic effects after 48 h | 6 to 7 |  |  |  | 
3 | CC[C@H](C)[C@@H]1NC(=O)[C@H](Cc2ccc(O)cc2)NC(=O)[C@H](CO)NC(=O)CNC(=O)[C@@H]2CCCN2C(=O)[C@H](C(C)C)NC(=O)[C@H](Cc2c[nH]cn2)NC(=O)[C@@H](N)CSSC[C@@H](C(=O)O)NC1=O [P6] (H-CHVPGSYIC-OH; disulfide 1-9) |  |  | better competition with EGF compared to P11 | not toxic |  | 
4 | CC[C@@]1(OC(=O)NCCCC(=O)N[C@H]2CSSC[C@@H](C(N)=O)NC(=O)[C@H](Cc3ccc(O)cc3)NC(=O)[C@H](CO)NC(=O)[C@H](CCC(N)=O)NC(=O)[C@H](CCSC)NC(=O)[C@H](C)NC(=O)[C@H](CC(N)=O)NC(=O)[C@H](C(C)C)NC2=O)C(=O)OCc2c1cc1n(c2=O)Cc2cc3ccccc3nc2-1 [P9-CPT] ({Camptothecin(20S-OCO)-GABA}-CVNAMQSYC-NH2; disulfide 1-9; C-terminus assumed) | exhibited cytotoxic effects after 48 h | 6 to 7 |  |  | did not affect cell viability | IC50 compared to free CPT ([2]; 6 h exposure then 48 h): four-fold higher
5 | CSCC[C@@H]1NC(=O)[C@H](C)NC(=O)[C@H](CC(N)=O)NC(=O)[C@H](C(C)C)NC(=O)[C@@H](N)CSSC[C@@H](C(=O)O)NC(=O)[C@H](Cc2ccc(O)cc2)NC(=O)[C@H](CO)NC(=O)[C@H](CCC(N)=O)NC1=O [P9] (H-CVNAMQSYC-OH; disulfide 1-9) |  |  | EGF significantly competed; also recorded: better competition with EGF compared to P11 | not toxic | did not affect cell viability | 
6 | CAQYTPGRC (disulfide 1-9) [P11] |  |  | EGF significantly competed |  |  | 
